Results taken from paper PMC4469081 (Bioorganic & medicinal chemistry letters, 2015).
Entries after “also recorded” stand apart in the source; their conditions may differ.

Tests used:
Type in all cases: cell-based
[1] = test system: ldlA[mSR-BI] cells; experiment: Cytotoxicity in the assay cell line; conditions: 24 h incubation stated for 1a
[2] = molecular target: T1, mouse SR-BI (ldlA[mSR-BI]) (Mus musculus, UniProt Q61009); experiment: DiI-HDL uptake assay
T1 sequence (Q61009 1-509): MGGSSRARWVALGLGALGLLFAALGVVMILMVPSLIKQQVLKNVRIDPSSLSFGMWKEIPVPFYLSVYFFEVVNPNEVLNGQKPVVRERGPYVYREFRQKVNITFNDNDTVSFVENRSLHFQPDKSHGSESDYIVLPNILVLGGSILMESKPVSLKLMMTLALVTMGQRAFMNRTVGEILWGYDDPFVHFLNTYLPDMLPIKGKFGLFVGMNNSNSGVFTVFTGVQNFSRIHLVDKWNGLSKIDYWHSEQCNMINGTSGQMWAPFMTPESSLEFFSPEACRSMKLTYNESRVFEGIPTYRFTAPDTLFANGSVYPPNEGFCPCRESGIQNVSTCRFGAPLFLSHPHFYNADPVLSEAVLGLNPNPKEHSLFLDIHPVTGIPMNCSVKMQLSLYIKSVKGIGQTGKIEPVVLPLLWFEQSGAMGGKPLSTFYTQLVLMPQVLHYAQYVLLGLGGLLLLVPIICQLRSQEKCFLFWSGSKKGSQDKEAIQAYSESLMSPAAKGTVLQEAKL

[3] = test system: receptor-mediated endocytosis of transferrin by ldlA[mSR-BI] cells; experiment: Endocytosis of Alexa-594-labeled transferrin; conditions: concentrations up to 35 μM

**Q.** With COc1ccc(-c2nnn(CC(=O)N(C3CCCCC3)C(C)C(=O)NC3CCCC3)n2)cc1OC (centres unmarked) [Compound 1a] as the molecule, how does the Cytotoxicity [1] read?
**A.** no measurable cytotoxicity

**Q.** Which “Fold decrease in activity relative to 1a” value ([2]; carbon atom inserted between cyclohexyl group and backbone nitrogen) does the source give for COc1ccc(-c2nnn(CC(=O)N(CC3CCCCC3)C(C)C(=O)NC3CCCC3)n2)cc1OC (centres unmarked) [Compound 4d] here?
**A.** greater than 20 fold

**Q.** How did the “Fold more potent than its enantiomer 5d” value ([2]; (R)-isomer vs (S)-isomer) turn out when C[C@H](C(=O)NC1CCCC1)N(C(=O)Cn1nnc(-c2ccc3c(c2)OCO3)n1)C1CCCCC1 [Compound 5e] was run?
**A.** 100 fold

**Q.** What about the Cytotoxicity ([1]; listed as ML279) of the same molecule?
**A.** non-toxic; also recorded: not cytotoxic

**Q.** What about the “Inhibition of transferrin endocytosis” value [3] of the same molecule?
**A.** no inhibition
